From US6479456B1, “Antimicrobial perfume compositions” (Firmenich SA, priority 2000, dated 2002)

System: Pityrosporum ovale
Experiment: agar surface coating test (ASCT) against Pityrosporum ovale, in shampoo
Assay type: cell-based
Conditions: shampoo containing Octopirox compared with a shampoo without Octopirox
Procedure: Whatever the chosen test according to the invention, a culture of the selected germ was set up on Petri dishes under the same test conditions in parallel with a control solution composed in general of sterilised water or of a saline solution. After the period(s) of incubation considered according to the selected test, the surface area of the dish which was free of bacteria and/or fungi was measured for both the tested compound and the control solution. By calculating a surface ratio, a relative surface value, enabling the selection of the compounds with an antimicrobial activity of at least 80% in one of these tests of effectiveness, was defined. The following germs were used in these methods: Pityrosporum ovale, Staphylococcus aureus, Staphylococcus epidermidis, Escherichia coli, Pseudomonas aeruginosa, Candida albicans, Trichophyton mentagrophytes. […]
The tested product and the agar surface are again left in contact for 30 s under the same conditions as above, followed by the stage of rinsing and of 24-h incubation at ambient temperature, and the antimicrobial evolution is observed again after this second phase of the test. […] The microbicidal or microbiostatic action can be established after each phase of the test, and recorded. […]

With `Cc1cc(CC(C)CC(C)(C)C)n(O)c(=O)c1.NCCO` (stereo not shown) [Octopirox®, Piroctone olamine] the “reduction of growth of P. ovale” value was 60%.
